The text below walks through data of ChEMBL document CHEMBL6153174, “Design and Synthesis of Novel Deazapurine DNMT 1 Inhibitors with In Vivo Efficacy in DLBCL” (J Med Chem, 2025).

The subject of assay [1] is U2932. Kind of assay: Antiproliferative activity against human U2932 cells assessed as inhibition of cell viability measured after 72 hrs by MTT assay. The settings on record: U2932, 72 h. In kind it is functional, cell-based. Background: Tetrazolium dyes change colour on reduction, which living cells bring about.
In assay [2] the test system is DOHH-2. The assay is described as follows: Antiproliferative activity against human DOHH-2 cells assessed as inhibition of cell viability measured after 72 hrs by MTT assay. Particulars: DOHH-2, 72 h. In kind it is functional, cell-based.
Assay [3] relates to Jurkat. The assay is described as follows: Antiproliferative activity against human Jurkat cells assessed as inhibition of cell viability measured after 72 hrs by MTT assay. The assay is classed as functional, cell-based.
A short description of assay [4]: Antiproliferative activity against human NK-YS cells assessed as inhibition of cell viability measured after 72 hrs by MTT assay. The assay is classed as functional, cell-based.
Assay [5] concerns TMD8. The assay is described as follows: Antiproliferative activity against human TMD8 cells assessed as inhibition of cell viability measured after 72 hrs by MTT assay. In kind it is functional, cell-based. Particulars: TMD8, 72 h.
For assay [6], the target named is T1, DNA (cytosine-5)-methyltransferase 1 (Homo sapiens, UniProt P26358). Kind of assay: Inhibition of DNMT1 in human DOHH-2 cells assessed as inhibition of DNA methylation incubated for 48 hrs by Western blot analysis. In kind it is cell-based. Particulars: dose 10-1000 nM.
The target in assay [7] is T1, DNA (cytosine-5)-methyltransferase 1. The assay is described as follows: Inhibition of DNMT1 in human DOHH-2 cells assessed as inhibition of 5-methylcytosine level at 10 to 1000 nM incubated for 48 hrs by Western blot analysis. Particulars: dose 10-1000 nM. The assay is classed as cell-based. For orientation: In western blotting, separated proteins are transferred to a membrane and probed.

Assay [8] shares this target. Kind of assay: Inhibition of DNMT1 in human DOHH-2 cells assessed as inhibition of H3K9 methylation level incubated for 48 hrs by Western blot analysis. The assay is classed as cell-based. The settings on record: dose 10-1000 nM.
For assay [9] the target is unchanged. Kind of assay: Inhibition of DNMT1 (unknown origin) at 5 uM preincubated for 15 mins followed by substrate and [3H-SAM] addition and measured after 60 mins by microbeta analysis relative to control. Particulars: time 75.0 min.
Assay [10] has the same target. The assay is described as follows: Inhibition of DNMT1 (unknown origin) at 1 uM preincubated for 15 mins followed by substrate and [3H-SAM] addition and measured after 60 mins by microbeta analysis relative to control. The settings on record: time 75.0 min.
Assay [11] concerns MV4-11. The assay is described as follows: Antiproliferative activity against human MV4-11 cells assessed as inhibition of cell viability measured after 72 hrs by MTT assay. The assay is classed as functional, cell-based. The settings on record: MV4-11, 72 h.
Assay [12] relates to U-937. The assay is described as follows: Antiproliferative activity against human U-937 cells assessed as inhibition of cell viability measured after 72 hrs by MTT assay. The settings on record: U-937, 72 h. In kind it is functional, cell-based.
The target of assay [13] is DNA (cytosine-5)-methyltransferase 3B (Homo sapiens, UniProt Q9UBC3). The assay is described as follows: Inhibition of DNMT3B (unknown origin) preincubated for 15 mins followed by substrate and [3H-SAM] addition and measured after 60 mins by microbeta analysis.
The subject of assay [14] is MOLM-13. Kind of assay: Antiproliferative activity against human MOLM-13 cells assessed as inhibition of cell viability measured after 72 hrs by MTT assay. The assay is classed as functional, cell-based. Particulars: MOLM-13, 72 h.
Assay [15] relates to THP-1. The assay is described as follows: Antiproliferative activity against human THP-1 cells assessed as inhibition of cell viability measured after 72 hrs by MTT assay. Particulars: THP-1, 72 h. In kind it is functional, cell-based.
In assay [16] the test system is RPMI-8226. Kind of assay: Antiproliferative activity against human RPMI-8226 cells assessed as inhibition of cell viability measured after 72 hrs by MTT assay. In kind it is functional, cell-based. The settings on record: RPMI-8226, 72 h.
In assay [17] the test system is MDA-MB-231. The assay is described as follows: Antiproliferative activity against human MDA-MB-231 cells assessed as inhibition of cell viability measured after 72 hrs by MTT assay. In kind it is functional, cell-based. Particulars: MDA-MB-231, 72 h.
Assay [18] has as its system HepG2. Kind of assay: Antiproliferative activity against human HepG2 cells assessed as inhibition of cell viability measured after 72 hrs by MTT assay. In kind it is functional, cell-based. Particulars: HepG2, 72 h.
For assay [19], the system named is A549. The assay is described as follows: Antiproliferative activity against human A549 cells assessed as inhibition of cell viability measured after 72 hrs by MTT assay. In kind it is functional, cell-based. The settings on record: A549, 72 h.
In assay [20] the test system is NCI-H1299. The assay is described as follows: Antiproliferative activity against human NCI-H1299 cells assessed as inhibition of cell viability measured after 72 hrs by MTT assay. The assay is classed as functional, cell-based. Particulars: NCI-H1299, 72 h.
Assay [21] deals with HeLa. The assay is described as follows: Antiproliferative activity against human HeLa cells assessed as inhibition of cell viability measured after 72 hrs by MTT assay. The assay is classed as functional, cell-based.
The test system of assay [22] is HT-29. The assay is described as follows: Antiproliferative activity against human HT-29 cells assessed as inhibition of cell viability measured after 72 hrs by MTT assay. In kind it is functional, cell-based. Particulars: HT-29, 72 h.
In assay [23] the test system is HCT-116. Kind of assay: Antiproliferative activity against human HCT-116 cells assessed as inhibition of cell viability measured after 72 hrs by MTT assay. The assay is classed as functional, cell-based. Particulars: HCT-116, 72 h.

The structures appear in SMILES notation. Activity calls are given as the source filed them. The calls are words filed in the database; no cut-off is given here.

T1 sequence (P26358 whole entry): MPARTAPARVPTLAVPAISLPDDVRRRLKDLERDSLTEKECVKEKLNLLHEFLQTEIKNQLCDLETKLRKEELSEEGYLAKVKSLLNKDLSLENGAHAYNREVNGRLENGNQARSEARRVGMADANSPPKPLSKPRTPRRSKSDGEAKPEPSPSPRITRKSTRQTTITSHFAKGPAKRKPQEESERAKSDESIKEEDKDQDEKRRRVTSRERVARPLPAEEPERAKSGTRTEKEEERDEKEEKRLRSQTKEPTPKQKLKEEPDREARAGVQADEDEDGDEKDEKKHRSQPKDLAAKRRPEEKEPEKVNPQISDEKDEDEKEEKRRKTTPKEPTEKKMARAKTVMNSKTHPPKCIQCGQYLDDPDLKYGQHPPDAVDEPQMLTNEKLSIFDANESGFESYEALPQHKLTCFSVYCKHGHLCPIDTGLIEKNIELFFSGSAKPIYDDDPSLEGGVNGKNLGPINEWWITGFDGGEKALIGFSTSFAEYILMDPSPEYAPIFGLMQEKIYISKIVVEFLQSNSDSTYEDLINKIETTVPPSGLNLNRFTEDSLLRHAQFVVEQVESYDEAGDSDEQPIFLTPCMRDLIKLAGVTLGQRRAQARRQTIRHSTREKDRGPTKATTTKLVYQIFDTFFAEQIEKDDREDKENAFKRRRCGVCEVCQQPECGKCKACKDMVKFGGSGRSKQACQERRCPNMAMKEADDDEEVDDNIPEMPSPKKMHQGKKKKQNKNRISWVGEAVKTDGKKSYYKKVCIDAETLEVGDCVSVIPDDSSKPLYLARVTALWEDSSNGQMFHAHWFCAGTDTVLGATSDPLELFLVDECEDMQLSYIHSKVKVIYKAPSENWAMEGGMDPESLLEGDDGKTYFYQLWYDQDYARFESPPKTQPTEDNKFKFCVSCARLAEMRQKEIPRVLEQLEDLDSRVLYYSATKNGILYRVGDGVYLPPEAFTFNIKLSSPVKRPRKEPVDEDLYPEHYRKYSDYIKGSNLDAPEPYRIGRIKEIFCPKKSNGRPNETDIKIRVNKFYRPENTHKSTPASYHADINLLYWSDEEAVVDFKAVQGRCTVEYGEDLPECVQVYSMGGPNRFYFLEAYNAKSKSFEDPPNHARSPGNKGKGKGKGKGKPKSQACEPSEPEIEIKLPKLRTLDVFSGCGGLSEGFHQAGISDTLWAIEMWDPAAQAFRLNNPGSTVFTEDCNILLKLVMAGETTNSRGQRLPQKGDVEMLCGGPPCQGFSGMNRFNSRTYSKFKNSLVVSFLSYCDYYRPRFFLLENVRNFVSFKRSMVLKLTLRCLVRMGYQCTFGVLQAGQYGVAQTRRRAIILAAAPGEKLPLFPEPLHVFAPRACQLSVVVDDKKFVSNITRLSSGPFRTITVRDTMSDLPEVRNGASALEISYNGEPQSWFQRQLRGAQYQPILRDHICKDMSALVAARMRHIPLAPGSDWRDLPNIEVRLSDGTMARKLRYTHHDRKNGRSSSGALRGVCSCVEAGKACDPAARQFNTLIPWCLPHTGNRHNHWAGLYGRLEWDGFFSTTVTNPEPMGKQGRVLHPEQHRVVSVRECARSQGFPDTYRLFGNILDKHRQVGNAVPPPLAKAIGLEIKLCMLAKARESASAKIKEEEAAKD

The term IC50 denotes the midpoint of a concentration-inhibition curve. Regarding `CCc1c(C#N)c(SC(C(N)=O)c2ccccc2)nc(N2CCC(N)CC2)c1C#N` (configuration not stated), the IC50 in [1] stood at 28.9 µM; in [2] it was 11.1 µM; in assay [3], 19.8 µM; in assay [4] it was 16.7 µM; in assay [5] it was 21.4 µM.
What is called inhibition is the percentage by which the read-out fell short of the control. For `COc1cc2c(NC3CCN(C)CC3)cc(-c3ccc(C)o3)nc2cc1OCCCN1CCCC1`, the IC50 in assay [1] was found to be 2.13 µM; in assay [2], 0.23 µM; in assay [3], 0.41 µM; in assay [5], 0.19 µM. In addition, the inhibition entry in [6] and in assay [8] was “Dose-dependent-effect” each time. Further, the inhibition entry in assay [7] is “Active”.
As to `Cc1cc(Nc2ccc(NC(=O)c3ccc(Nc4ccnc5ccccc45)cc3)cc2)nc(N)n1`, the inhibition worked out at 3.4% in assay [9] and 77% in [10]. In addition, the IC50 in assay [11] was found to be 0.98 µM; in assay [12], 4.12 µM; in [13], 1.91 µM; in [14], 1.19 µM; in [15] it was 2.47 µM; in [16], 1.34 µM. The 50% inhibitory concentration (IC50) is 5.39 µM in assay [17]; 11.6 µM in assay [18]; 9.5 µM in [19]; 12.2 µM in [20]; 21.6 µM in assay [21]; 0.49 µM in [22]. In assay [23], the IC50 turned out to be 0.82 µM.
